# Experimental data reported in patent US20230127008A1, “STAT3-TARGETED BASE EDITOR THERAPEUTICS FOR THE TREATMENT OF MELANOMA AND OTHER CANCERS” (The Broad Institute, Inc., priority 2020, published 2023).
# Key:
# DNA [1] = details: SpCas9 mutation relative to SEQ ID NO: 74; UniProtKB-Q99ZW2 entry; cited from earlier work
# [2] = system: STAT3-dependent breast cancer cells; details: 10 μM; cited from earlier work
# STAT3 [3] = assay: STAT3 reporter signal after STAT3 inhibitor or base editor treatment (FIGS. 3, 4, 5); format: cell-based
# STAT3 SH2 domain = STAT3 SH2 domain (Homo sapiens, UniProt P40763); details: 37° C.; cited from earlier work
# STAT3 [4] = assay: STAT3 reporter system (STAT3 signal); format: cell-based
# DNA [5] = assay: A to G editing on DNA by ecTadA mutant-nCas9 constructs (mammalian construct); format: cell-based
# STAT3 SH2 domain, sequence (P40763 whole entry, the tested form may be a part): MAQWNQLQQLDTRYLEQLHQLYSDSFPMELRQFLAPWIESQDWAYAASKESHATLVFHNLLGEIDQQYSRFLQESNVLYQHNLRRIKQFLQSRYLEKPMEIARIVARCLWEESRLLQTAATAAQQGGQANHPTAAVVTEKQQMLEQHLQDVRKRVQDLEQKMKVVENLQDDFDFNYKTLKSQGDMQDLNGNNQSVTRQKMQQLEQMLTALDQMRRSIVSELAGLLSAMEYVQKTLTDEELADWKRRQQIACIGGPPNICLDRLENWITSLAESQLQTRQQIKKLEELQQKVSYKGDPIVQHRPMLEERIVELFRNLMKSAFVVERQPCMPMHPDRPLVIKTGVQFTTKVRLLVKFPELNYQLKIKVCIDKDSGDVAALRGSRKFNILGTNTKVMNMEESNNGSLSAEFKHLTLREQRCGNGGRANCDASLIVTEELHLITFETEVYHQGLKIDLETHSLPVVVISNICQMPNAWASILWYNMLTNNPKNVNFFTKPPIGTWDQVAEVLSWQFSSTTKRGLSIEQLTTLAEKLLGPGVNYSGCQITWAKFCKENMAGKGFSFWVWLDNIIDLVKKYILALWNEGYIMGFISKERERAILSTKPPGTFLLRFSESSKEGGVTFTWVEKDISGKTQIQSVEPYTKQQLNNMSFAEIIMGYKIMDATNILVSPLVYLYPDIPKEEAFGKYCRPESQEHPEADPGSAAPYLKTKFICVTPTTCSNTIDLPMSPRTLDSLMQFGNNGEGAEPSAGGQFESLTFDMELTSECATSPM
compound,measurement,setting,value
"1099-1368 deletion: SpCas9 mutation relative to canonical SpCas9, SEQ ID NO: 74",Function/Characteristic (as reported),DNA [1],No nuclease activity
"O=[N+]([O-])c1ccc2c(c1)S(=O)(=O)C=C2 [Stattic, stattic]",apoptosis,[2],induce apoptosis
same,STAT3 signal over time,STAT3 [3],produces an effect that does not last over time
same,STAT3-driven signals,STAT3 [3]; different concentrations,reduce STAT3-driven signals
same,IC50,STAT3 SH2 domain,5.1 µM
same,inhibition of STAT3,"STAT3 [4]; STAT3 inhibitor at different concentrations, FIG. 3",inhibition of STAT3
same,STAT3 signal over time,"STAT3 [4]; extension of the graph of FIG. 3, FIG. 5",does not lead to a durable effect
"H840A: SpCas9 mutation relative to canonical SpCas9, SEQ ID NO: 74",Function/Characteristic (as reported),DNA [1],Nickase mutant which cleaves the non-
"ecTadA(D108G)-XTEN-nCas9-NLS: ABE fusion protein, SEQ ID NO: 155","activity on DNA, A to G editing",DNA [5],"ecTadA(D108G)-XTEN-nCas9-NLS: (mammalian construct, active on DNA, A to G"
"ecTadA(D108N)-XTEN-nCas9-NLS: ABE fusion protein, SEQ ID NO: 154","activity on DNA, A to G editing",DNA [5],"ecTadA(D108N)-XTEN-nCas9-NLS: (mammalian construct, active on DNA, A to G"
"ecTadA(D108V)-XTEN-nCas9-NLS: ABE fusion protein, SEQ ID NO: 156","activity on DNA, A to G editing",DNA [5],"ecTadA(D108V)-XTEN-nCas9-NLS: (mammalian construct, active on DNA, A to G"
